From US11926600B2, “Sulfonylureas and sulfonylthioureas as NLRP3 inhibitors” (Inflazome Limited, priority 2017, dated 2024) come the findings set out here.

The structures appear in SMILES notation.

In assay [1] the target is T1, NLRP3 (Homo sapiens, UniProt Q96P20). Kind of assay: Human whole blood IL1β release assay. In kind it is cell-based. Set-up: Plate out 80 μl of whole blood containing 1 μg/ml of LPS; from tissue; host or cells: human whole blood from healthy donors, LPS-primed, nigericin-stimulated. Conditions: LPS 1 μg/ml, nigericin 10 μM, IL-1β AlphaLisa, read-out: HWB IC50. As for the experimental part:
Human Whole Blood IL1β Release Assay
For systemic delivery, the ability to inhibit NLRP3 when the compounds are present within the bloodstream is of great importance. For this reason, the NLRP3 inhibitory activity of a number of compounds in human whole blood was investigated in accordance with the following protocol.
Human whole blood in Li-heparin tubes was obtained from healthy donors from a volunteer donor panel. • 1. Plate out 80 μl of whole blood containing 1 μg/ml of LPS in 96-well, clear bottom cell culture plate (Corning #3585) • 2. Add 10 μl compound (8 points half-log dilution with 10 μM top dose) or vehicle (DMSO 0.1% FAC) to the appropriate wells • 3. Incubate for 3 hrs at 37° C. 5% CO2 • 4. Add 10 μl Nigericin (Sigma #N7143) (10 μM FAC) to all wells • 5. Incubate for 1 hr at 37° C. 5% CO2 • 6. At the end of the incubation period, spin plates at 300×g for 5 mins to pellet cells and remove 20 μl of supernatant and add to 96-well v-bottom plates for IL-1β analysis (note: these plates containing the supernatants can be stored at −80° C. to be analysed at a later date) • 7. IL-1β was measured according to the manufacturer protocol (Perkin Elmer-AlphaLisa IL-1 Kit AL220F-5000) • 8. IC50 data is fitted to a non-linear regression equation (log inhibitor vs response-variable slope 4-parameters)

Assay [2] deals with T1, NLRP3. Kind of assay: THP-1 cells pyroptosis assay. Format: cell-based. Set-up: Seed THP-1 cells (25,000 cells/well) containing 1.0 μg/ml LPS; host or cells: THP-1 cells, LPS-primed, nigericin-stimulated. Particulars: LPS 1 μg/ml, nigericin 5 μM, resazurin readout. As for the experimental part: THP-1 Cells: Culture and Preparation
The cells were routinely passaged and grown to confluency (˜10^6 cells/ml). On the day of the experiment, THP-1 cells were harvested and resuspended into RPMI medium (without FBS). The cells were then counted and viability (>90%) checked by Trypan blue (Sigma #T8154). […] To this diluted cell solution was added LPS (Sigma #L4524) to give a 1 μg/ml Final Assay Concentration (FAC). 40 μl of the final preparation was aliquoted into each well of a 96-well plate. The plate thus prepared was used for compound screening.
THP-1 Cells Pyroptosis Assay
The following method step-by-step assay was followed for compound screening. • 1. […] Incubate for 3 hrs at 37° C. in 5% CO2 • 4. Add 5 μl nigericin (Sigma #N7143) (FAC 5 μM) to all wells • 5. Incubate for 1 hr at 37° C. and 5% CO2 • 6. At the end of the incubation period, spin plates at 300×g for 3 mins and remove supernatant • 7. Then add 50 μl of resazurin (Sigma #R7017) (FAC 100 μM resazurin in RPMI medium without FBS) and incubate plates for a further 1-2 hrs at 37° C. and 5% CO2 • 8. […] IC50 data is fitted to a non-linear regression equation (log inhibitor vs response-variable slope 4-parameters)

T1 sequence (Q96P20 whole entry): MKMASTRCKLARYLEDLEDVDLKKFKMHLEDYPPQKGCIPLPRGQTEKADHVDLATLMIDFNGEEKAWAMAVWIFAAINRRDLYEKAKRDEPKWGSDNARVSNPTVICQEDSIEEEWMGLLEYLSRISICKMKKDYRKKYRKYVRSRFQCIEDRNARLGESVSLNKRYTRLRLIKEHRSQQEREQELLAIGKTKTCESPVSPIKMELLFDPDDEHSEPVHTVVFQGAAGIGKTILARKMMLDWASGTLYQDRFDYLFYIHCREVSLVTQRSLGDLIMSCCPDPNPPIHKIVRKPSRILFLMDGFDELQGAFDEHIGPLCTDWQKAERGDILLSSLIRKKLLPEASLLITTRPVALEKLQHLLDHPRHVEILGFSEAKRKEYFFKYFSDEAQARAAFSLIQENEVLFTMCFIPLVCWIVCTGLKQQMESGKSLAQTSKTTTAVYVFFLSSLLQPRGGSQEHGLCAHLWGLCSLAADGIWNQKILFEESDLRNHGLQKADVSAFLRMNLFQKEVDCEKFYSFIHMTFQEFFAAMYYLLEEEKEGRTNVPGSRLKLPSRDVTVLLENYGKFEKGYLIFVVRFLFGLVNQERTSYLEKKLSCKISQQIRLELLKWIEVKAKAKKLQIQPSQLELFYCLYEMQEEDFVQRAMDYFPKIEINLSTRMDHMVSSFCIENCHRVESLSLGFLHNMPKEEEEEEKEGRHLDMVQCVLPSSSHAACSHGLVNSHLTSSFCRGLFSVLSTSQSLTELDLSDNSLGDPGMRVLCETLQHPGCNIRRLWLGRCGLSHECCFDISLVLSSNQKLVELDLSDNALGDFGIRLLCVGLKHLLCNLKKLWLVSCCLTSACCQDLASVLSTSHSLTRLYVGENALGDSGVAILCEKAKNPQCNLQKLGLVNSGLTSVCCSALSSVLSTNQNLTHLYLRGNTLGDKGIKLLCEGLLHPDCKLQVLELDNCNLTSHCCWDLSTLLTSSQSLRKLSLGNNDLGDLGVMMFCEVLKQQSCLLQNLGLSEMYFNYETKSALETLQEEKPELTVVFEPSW

Regarding `C[C@@H](O)Cn1cnc(S(=O)(=O)NC(=O)Nc2c3c(cc4c2CCC4)CCC3)c1` [Example 1, (R)—N-((1,2,3,5,6,7-Hexahydro-s-indacen-4-yl)carbamoyl)-1-(2-hydroxypropyl)-1H-imidazole-4-sulfonamide], the figures for the IC50 in assay [1] and in assay [2] were 800 to 1600 nM and 160 to 640 nM, respectively.
The matching figures for `C[C@H](O)Cn1cnc(S(=O)(=O)NC(=O)Nc2c3c(cc4c2CCC4)CCC3)c1` [Example 2, (S)—N-((1,2,3,5,6,7-Hexahydro-s-indacen-4-yl)carbamoyl)-1-(2-hydroxypropyl)-1H-imidazole-4-sulfonamide]: 800 to 1600 nM and 160 to 640 nM.
For `CN(C)CCn1cnc(S(=O)(=O)NC(=O)Nc2c3c(cc4c2CCC4)CCC3)c1` [Example 3, 1-(2-(Dimethylamino)ethyl)-N-((1,2,3,5,6,7-hexahydro-s-indacen-4-yl)carbamoyl)-1H-imidazole-4-sulfonamide] the same measures were 1600 to 3200 nM and 640 to 2560 nM.
In the case of `CC(C)c1cc(F)cc(-c2ccnc(C#N)c2)c1NC(=O)NS(=O)(=O)c1cn(C(C)C)cn1` [Example 4, N-((2-(2-Cyanopyridin-4-yl)-4-fluoro-6-isopropylphenyl)carbamoyl)-1-isopropyl-1H-imidazole-4-sulfonamide], the IC50 was in the range of 400 to 800 nM in assay [1] and 160 to 640 nM in assay [2].
On to `COc1cc(-c2cc(F)cc(C(C)C)c2NC(=O)NS(=O)(=O)c2cn(C(C)C)cn2)ccn1` [Example 5, N-((4-Fluoro-2-isopropyl-6-(2-methoxypyridin-4-yl)phenyl)carbamoyl)-1-isopropyl-1H-imidazole-4-sulfonamide], for which the IC50 was 800 to 1600 nM in assay [1] and 40 to 160 nM in assay [2].
The matching figures for `CCn1cc(S(=O)(=O)NC(=O)Nc2c3c(cc4c2CCC4)CCC3)nc1C` [Example 6, 1-Ethyl-N-((1,2,3,5,6,7-hexahydro-s-indacen-4-yl)carbamoyl)-2-methyl-1H-imidazole-4-sulfonamide]: 3200 to 10000 nM and 160 to 640 nM.
The matching figures for `Cc1nc(S(=O)(=O)NC(=O)Nc2c3c(cc4c2CCC4)CCC3)cn1C(C)C` [Example 7, N-((1,2,3,5,6,7-Hexahydro-s-indacen-4-yl)carbamoyl)-1-isopropyl-2-methyl-1H-imidazole-4-sulfonamide]: 1600 to 3200 nM and 160 to 640 nM.
Compound `CC(C)c1ncc(S(=O)(=O)NC(=O)Nc2c3c(cc4c2CCC4)CCC3)n1C` [Example 8, N-((1,2,3,5,6,7-Hexahydro-s-indacen-4-yl)carbamoyl)-2-isopropyl-1-methyl-1H-imidazole-5-sulfonamide] showed an IC50 in assay [2] of 160 to 640 nM.
As for `Cn1ccnc1S(=O)(=O)NC(=O)Nc1c2c(cc3c1CCC3)CCC2` [Example 9, N-((1,2,3,5,6,7-Hexahydro-s-indacen-4-yl)carbamoyl)-1-methyl-1H-imidazole-2-sulfonamide], the IC50 in assay [2] is 2560 to 10000 nM.
The same measure, in the same setting: under `CC(C)c1cc(F)cc(-c2cnn(C)c2)c1NC(=O)NS(=O)(=O)c1cn(C(C)C)cn1` [Example 10, N-((4-Fluoro-2-isopropyl-6-(i-methyl-1H-pyrazol-4-yl)phenyl)carbamoyl)-1-isopropyl-1H-imidazole-4-sulfonamide] stands 2560 to 10000 nM; under `Cn1cnc(S(=O)(=O)NC(=O)Nc2c3c(cc4c2CCC4)CCC3)c1` [Example 12, N-((1,2,3,5,6,7-Hexahydro-s-indacen-4-yl)carbamoyl)-1-methyl-1H-imidazole-4-sulfonamide], 640 to 2560 nM.
Take `CC(C)c1nc(S(=O)(=O)NC(=O)Nc2c3c(cc4c2CCC4)CCC3)cn1C` [Example 13, N-((1,2,3,5,6,7-Hexahydro-s-indacen-4-yl)carbamoyl)-2-isopropyl-1-methyl-1H-imidazole-4-sulfonamide]: the half-maximal inhibitory concentration (IC50) in assay [1] was in the range of 3200 to 10000 nM; in assay [2], 640 to 2560 nM.
`CC(C)c1cccc(C(C)C)c1NC(=O)NS(=O)(=O)c1cn(C(C)C)cn1` [Example 14, N-((2,6-Diisopropylphenyl)carbamoyl)-1-isopropyl-1H-imidazole-4-sulfonamide] gave a half-inhibitory concentration (IC50) in assay [2] of 2560 to 10000 nM.
As to `CC(C)n1cnc(S(=O)(=O)NC(=O)Nc2c3c(cc4c2CCC4)CCC3)c1` [Example 15, N-((1,2,3,5,6,7-Hexahydro-s-indacen-4-yl)carbamoyl)-1-isopropyl-1H-imidazole-4-sulfonamide], the results for the IC50 in assay [1] and in assay [2] were 1600 to 3200 nM and 160 to 640 nM, respectively.
For `Cc1nc(S(=O)(=O)NC(=O)Nc2c3c(cc4c2CCC4)CCC3)cn1CC1CCCO1` (stereo not drawn) [Example 16, N-((1,2,3,5,6,7-Hexahydro-s-indacen-4-yl)carbamoyl)-2-methyl-1-((tetrahydrofuran-2-yl)methyl)-1H-imidazole-4-sulfonamide] the same measures were 800 to 1600 nM and 160 to 640 nM.
The matching figures for `Cc1nc(S(=O)(=O)NC(=O)Nc2c3c(cc4c2CCC4)CCC3)cn1CCO` [Example 17, N-((1,2,3,5,6,7-Hexahydro-s-indacen-4-yl)carbamoyl)-1-(2-hydroxyethyl)-2-methyl-1H-imidazole-4-sulfonamide]: 800 to 1600 nM and 640 to 2560 nM.
The matching figures for `CN(C)Cc1c(S(=O)(=O)NC(=O)Nc2c3c(cc4c2CCC4)CCC3)ncn1C` [Example 19]: 800 to 1600 nM and 160 to 640 nM.
For the compound `CC(C)n1cnc(S(=O)(=O)NC(=O)Nc2c(-c3ccnc(C#N)c3)ccc3c2CCC3)c1` [Example 20], the figures for the IC50 in assay [1] and in assay [2] were below 400 nM and below 40 nM, respectively.
As to `COc1cc(-c2ccc3c(c2NC(=O)NS(=O)(=O)c2cn(C(C)C)cn2)CCC3)ccn1` [Example 21], the IC50 fell in the range of 400 to 800 nM in assay [1] and 40 to 160 nM in assay [2].
